Experimental data reported in patent EP4230620A1, “SUBSTITUTED N-AMINO-N-BENZOIC ACID URACILS, THEIR SALTS AND USE OF SAID COMPOUNDS AS HERBICIDAL AGENTS” (Bayer Aktiengesellschaft, priority 2022, dated 2023).

How the values were obtained:
Assay type in all cases: in vivo
Polygonum convolvulus = assay: Post-emergence herbicidal action in greenhouse against POLCO; conditions: visual rating after ca. 3 weeks
From the text: (§1) Biologische Beispiele: • Die folgenden Abkürzungen werden für die in den folgenden Tabellen aufgeführten Kultur- und Schadpflanzen verwendet: ABUTH: Abutilon theophrasti ALOMY: Alopecurus myosuroides AMARE: Amaranthus retroflexus BRSNS: Brassica napus DIGSA: Digitaria sanguinalis ECHCG: Echinochloa crus-galli GLXMA: Glycine max KCHSC: Kochia scoparia LOLRI: Lolium rigidum MATIN: Matricaria inodora ORYZA: Oryza sativa PHPBU: Pharbitis purpurea POLCO: Polygonum convolvulus SETVI: Setaria viridis VERPE: Veronica persica VIOTR: Viola tricolor TRZAS: Triticum aestivum ZEAMX: Zea mays • A. Herbizide Wirkung im Nachauflauf
(§2) Samen von mono- bzw. dikotylen Unkrautpflanzen wurden in Kunststoff- oder Holzfasertöpfen in sandigem Lehmboden ausgelegt, mit Erde abgedeckt und im Gewächshaus unter kontrollierten Wachstumsbedingungen angezogen. 2 bis 3 Wochen nach der Aussaat wurden die Versuchspflanzen im Einblattstadium behandelt. Die in Form von benetzbaren Pulvern (WP) oder als Emulsionskonzentrate (EC) formulierten erfindungsgemäßen Verbindungen wurden dann als wässrige Suspension bzw. Emulsion unter Zusatz von 0,5% Additiv mit einer Wasseraufwandmenge von umgerechnet 600 l/ha auf die grünen Pflanzenteile gesprüht. Nach ca. 3 Wochen Standzeit der Versuchspflanzen im Gewächshaus, unter optimalen Wachstumsbedingungen, wurde die Wirkung der Präparate visuell im Vergleich zu unbehandelten Kontrollen bonitiert. Beispielsweise bedeutet 100% Wirkung = Pflanzen sind abgestorben, 0% Wirkung = wie Kontrollpflanzen.
(§3) In den nachstehenden Tabellen A1 bis A11 sind die Wirkungen ausgewählter Verbindungen der allgemeinen Formel (I) gemäß der Tabelle 1 auf verschiedene Schadpflanzen und einer Aufwandmenge entsprechend 20 g/ha und niedriger, die gemäß zuvor genannter Versuchsvorschrift erhalten wurden, dargestellt. Tabelle A1a: Nachauflaufwirkung bei 1,25 g/ha gegen ABUTH in %

Matricaria inodora = assay: Post-emergence herbicidal action in greenhouse against MATIN; conditions: visual rating after ca. 3 weeks
From the text: as §1, §2, §3

Amaranthus retroflexus = assay: Post-emergence herbicidal action in greenhouse against AMARE; conditions: post-emergence spray, 600 l/ha water, visual rating after ca. 3 weeks vs untreated controls, 100% = plants dead, 0% = like control plants
From the text: as §1, §2, §3

Abutilon theophrasti = assay: Post-emergence herbicidal action in greenhouse against ABUTH; conditions: post-emergence spray, 600 l/ha water, visual rating after ca. 3 weeks vs untreated controls, 100% = plants dead, 0% = like control plants
From the text: as §1, §2, §3

Triticum aestivum = assay: Post-emergence action on crop plants in greenhouse, TRZAS; conditions: crop plant, visual rating after ca. 3 weeks, 100% = plants dead, 0% = like control plants
From the text: as §1
as §2, with “Kulturpflanzen” for “Unkrautpflanzen”
(§4) In den nachstehenden Tabellen B1 bis B4 sind die Wirkungen ausgewählter Verbindungen der allgemeinen Formel (I) gemäß der Tabelle 1 auf verschiedene Kulturpflanzen und einer Aufwandmenge entsprechend 20 g/ha und niedriger, die gemäß zuvor genannter Versuchsvorschrift erhalten wurden, dargestellt. Tabelle B1a: Nachauflaufwirkung bei 1,25 g/ha gegen ZEAMX in %

Alopecurus myosuroides = assay: Post-emergence herbicidal action in greenhouse against ALOMY; conditions: post-emergence spray, 600 l/ha water, visual rating after ca. 3 weeks vs untreated controls, 100% = plants dead, 0% = like control plants
From the text: as §1, §2, §3

Setaria viridis = assay: Post-emergence herbicidal action in greenhouse against SETVI; conditions: visual rating after ca. 3 weeks
From the text: as §1, §2, §3

Zea mays = assay: Post-emergence action on crop plants in greenhouse, ZEAMX; conditions: crop plant, 100% = plants dead, 0% = like control plants
From the text: as §1
as §2, with “Kulturpflanzen” for “Unkrautpflanzen”
as §4

Viola tricolor = assay: Post-emergence herbicidal action in greenhouse against VIOTR; conditions: visual rating after ca. 3 weeks
From the text: as §1, §2, §3

Lolium rigidum = assay: Post-emergence herbicidal action in greenhouse against LOLRI; conditions: 20 g/ha; post-emergence spray, 600 l/ha water; visual rating after ca. 3 weeks vs untreated controls; 100% = plants dead, 0% = like control plants
From the text: as §1, §2, §3

Veronica persica = assay: Post-emergence herbicidal action in greenhouse against VERPE; conditions: visual rating after ca. 3 weeks
From the text: as §1, §2, §3

Pharbitis purpurea = assay: Post-emergence herbicidal action in greenhouse against PHBPU; conditions: visual rating after ca. 3 weeks
From the text: as §1, §2, §3

Digitaria sanguinalis = assay: Post-emergence herbicidal action in greenhouse against DIGSA; conditions: visual rating after ca. 3 weeks
From the text: as §1, §2, §3

Oryza sativa = assay: Post-emergence action on crop plants in greenhouse, ORYZA; conditions: crop plant, visual rating after ca. 3 weeks, 100% = plants dead, 0% = like control plants
From the text: as §1
as §2, with “Kulturpflanzen” for “Unkrautpflanzen”
as §4

[1] = 1,25 g/ha, post-emergence, visual rating after ca. 3 weeks

Row | Structure (SMILES) | Nachauflaufwirkung gegen POLCO (Polygonum convolvulus; 20 g/ha) [%] | Nachauflaufwirkung gegen MATIN (Matricaria inodora; 20 g/ha) [%] | Nachauflaufwirkung gegen AMARE (Amaranthus retroflexus; 1,25 g/ha) [%] | Nachauflaufwirkung gegen AMARE (Amaranthus retroflexus; 5 g/ha) [%] | Nachauflaufwirkung gegen AMARE (Amaranthus retroflexus; 20 g/ha) [%] | Nachauflaufwirkung gegen ABUTH (Abutilon theophrasti; 1,25 g/ha) [%] | Nachauflaufwirkung gegen ABUTH (Abutilon theophrasti; 5 g/ha) [%] | Nachauflaufwirkung gegen ABUTH (Abutilon theophrasti; 20 g/ha) [%] | Nachauflaufwirkung gegen TRZAS (Triticum aestivum; 1,25 g/ha) [%] | Nachauflaufwirkung gegen TRZAS (Triticum aestivum; 5 g/ha) [%] | Nachauflaufwirkung gegen SETVI (Setaria viridis; 1,25 g/ha) [%] | Nachauflaufwirkung gegen SETVI (Setaria viridis; 5 g/ha) [%] | Nachauflaufwirkung gegen SETVI (Setaria viridis; 20 g/ha) [%] | Nachauflaufwirkung gegen VIOTR (Viola tricolor; 1,25 g/ha) [%] | Nachauflaufwirkung gegen VIOTR (Viola tricolor; 5 g/ha) [%] | Nachauflaufwirkung gegen VIOTR (Viola tricolor; 20 g/ha) [%] | Nachauflaufwirkung gegen VERPE (Veronica persica; 5 g/ha) [%] | Nachauflaufwirkung gegen VERPE (Veronica persica; 20 g/ha) [%] | Nachauflaufwirkung gegen PHBPU (Pharbitis purpurea; 1,25 g/ha) [%] | Nachauflaufwirkung gegen PHBPU (Pharbitis purpurea; 5 g/ha) [%] | other results
1 | COCCOC(=O)C(C)(C)OC(=O)c1cc(-n2c(=O)cc(C(F)(F)F)n(N)c2=O)c(F)cc1Cl [I.1-1] | 100 | 100 | 100 | 100 | 100 | 90 | 100 | 100 | 0 | 0 | 100 | 100 | 100 | 80 | 100 | 100 | 100 | 100 | 100 | 100 | Nachauflaufwirkung gegen POLCO (Polygonum convolvulus; 5 g/ha): 100%; Nachauflaufwirkung gegen MATIN (Matricaria inodora; 5 g/ha): 100%; Nachauflaufwirkung gegen ALOMY (Alopecurus myosuroides; 5 g/ha): 80%; Nachauflaufwirkung gegen ALOMY (Alopecurus myosuroides; 20 g/ha): 90%; Nachauflaufwirkung gegen ZEAMX (Zea mays; [1]): 0%; Nachauflaufwirkung gegen LOLRI (Lolium rigidum): 90%; Nachauflaufwirkung gegen VERPE (Veronica persica; 1,25 g/ha): 100%; Nachauflaufwirkung gegen PHBPU (Pharbitis purpurea; 20 g/ha): 100%; Nachauflaufwirkung gegen DIGSA (Digitaria sanguinalis; 5 g/ha): 100%; Nachauflaufwirkung gegen DIGSA (Digitaria sanguinalis; 20 g/ha): 100%; Nachauflaufwirkung gegen ORYZA (Oryza sativa; 1,25 g/ha): 0%
2 | CC(C)(OC(=O)c1cc(-n2c(=O)cc(C(F)(F)F)n(N)c2=O)c(F)cc1Cl)C(=O)OCC#N [I.1-176, 1-(Cyanmethoxy)-2-methyl-1-oxopropan-2-yl-5-[3-amino-2,6-dioxo-4-(trifluormethyl)-3,6-dihydropyrimidin-1(2H)-yl]-2-chlor-4-fluorbenzoat] | 100 | 100 | 100 | 100 | 100 | 100 | 100 | 100 | 0 | 20 | 100 | 100 | 100 | 90 | 100 | 100 | 100 | 100 | 90 | 100 | Nachauflaufwirkung gegen POLCO (Polygonum convolvulus; 5 g/ha): 100%; Nachauflaufwirkung gegen MATIN (Matricaria inodora; 5 g/ha): 100%; Nachauflaufwirkung gegen ALOMY (Alopecurus myosuroides; 20 g/ha): 100%; Nachauflaufwirkung gegen LOLRI (Lolium rigidum): 80%; Nachauflaufwirkung gegen VERPE (Veronica persica; 1,25 g/ha): 80%; Nachauflaufwirkung gegen PHBPU (Pharbitis purpurea; 20 g/ha): 100%; Nachauflaufwirkung gegen DIGSA (Digitaria sanguinalis; 5 g/ha): 100%; Nachauflaufwirkung gegen DIGSA (Digitaria sanguinalis; 20 g/ha): 100%; Nachauflaufwirkung gegen ORYZA (Oryza sativa; 1,25 g/ha): 20%
3 | CC(C)(OC(=O)c1cc(-n2c(=O)cc(C(F)(F)F)n(N)c2=O)ccc1Cl)C(=O)OCc1ccccn1 [I.2-286] | 100 | 100 | 80 | 100 | 100 | 80 | 100 | 100 | 0 | 0 | 90 | 100 | 100 | 100 | 100 | 100 | 100 | 100 | 100 | 100 | Nachauflaufwirkung gegen POLCO (Polygonum convolvulus; 5 g/ha): 100%; Nachauflaufwirkung gegen TRZAS (Triticum aestivum; 20 g/ha): 10%; Nachauflaufwirkung gegen ZEAMX (Zea mays; [1]): 20%; Nachauflaufwirkung gegen PHBPU (Pharbitis purpurea; 20 g/ha): 100%; Nachauflaufwirkung gegen DIGSA (Digitaria sanguinalis; 5 g/ha): 80%; Nachauflaufwirkung gegen DIGSA (Digitaria sanguinalis; 20 g/ha): 100%; Nachauflaufwirkung gegen ORYZA (Oryza sativa; 1,25 g/ha): 0%; Nachauflaufwirkung gegen ORYZA (Oryza sativa; 5 g/ha): 0%
4 | C=CCOC(=O)C(C)(C)OC(=O)c1cc(-n2c(=O)cc(C(F)(F)F)n(N)c2=O)ccc1Cl [I.2-471] | 100 | 100 | 100 | 100 | 100 | 90 | 100 | 100 | 0 | 0 | 100 | 100 | 100 | 100 | 100 | 100 | 100 | 100 | 100 | 100 | Nachauflaufwirkung gegen MATIN (Matricaria inodora; 5 g/ha): 90%; Nachauflaufwirkung gegen TRZAS (Triticum aestivum; 20 g/ha): 10%; Nachauflaufwirkung gegen ALOMY (Alopecurus myosuroides; 20 g/ha): 80%; Nachauflaufwirkung gegen ZEAMX (Zea mays; [1]): 20%; Nachauflaufwirkung gegen ZEAMX (Zea mays; 5 g/ha, post-emergence spray, 600 l/ha water, visual rating after ca. 3 weeks vs untreated controls): 20%; Nachauflaufwirkung gegen VERPE (Veronica persica; 1,25 g/ha): 100%; Nachauflaufwirkung gegen PHBPU (Pharbitis purpurea; 20 g/ha): 100%; Nachauflaufwirkung gegen DIGSA (Digitaria sanguinalis; 5 g/ha): 100%; Nachauflaufwirkung gegen DIGSA (Digitaria sanguinalis; 20 g/ha): 100%; Nachauflaufwirkung gegen ORYZA (Oryza sativa; 1,25 g/ha): 0%
